Consider twelve compounds from patent US8802678B2, “Carbonylated (aza) cyclohexanes as dopamine D3 receptor ligands” (Bioprojet, priority 2006, dated 2014).

For one data set, the target named is human D3 receptor (Homo sapiens, UniProt P35462). As to the kind of experiment: [3H]spiperone binding, membranes of CHO cells transfected with human D3 receptor cDNA. As to conditions: affinity for the human D3 receptor; [3H]spiperone 0.5-2 nM, CHO-hD3 membranes, 60 minutes at room temperature. The procedure: Affinity of compounds for the human D3 receptor can be determined by [^3H] spiperone binding CHO cells have been transfected by the cDNA coding for the human D3 receptor (hD3). [^3H]Spiperone (0.5 à 2 nM) binding is performed in the presence of 2.5 to 5 μg of membrane proteins in a medium containing 120 mM NaCl, 5 mM KCl, and 50 mM Tris HCl pH 7.4; incubation for 60 minutes at room temperature is performed. Non specific binding is estimated in the presence of 10 μM haloperidol. Non transfected cells are devoid of any specific binding.
Sequence of human D3 receptor (P35462 whole entry): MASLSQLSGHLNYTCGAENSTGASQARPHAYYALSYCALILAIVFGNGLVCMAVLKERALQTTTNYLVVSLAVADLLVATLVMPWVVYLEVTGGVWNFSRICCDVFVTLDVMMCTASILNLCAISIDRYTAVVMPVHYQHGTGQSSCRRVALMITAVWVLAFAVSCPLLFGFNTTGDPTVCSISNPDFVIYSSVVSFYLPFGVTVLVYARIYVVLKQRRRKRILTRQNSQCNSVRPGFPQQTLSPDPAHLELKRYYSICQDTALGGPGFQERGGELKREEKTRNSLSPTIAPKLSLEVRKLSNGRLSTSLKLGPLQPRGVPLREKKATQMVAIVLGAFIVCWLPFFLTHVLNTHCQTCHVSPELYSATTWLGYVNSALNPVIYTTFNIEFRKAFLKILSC

In turn, `Cl.N#CCC(=O)N1CCC(CCN2CCN(c3cccc(C(F)(F)F)c3)CC2)CC1` [Example 15, 3-Oxo-3-(4-{2-[4-(3-trifluoromethylphenyl)piperazin-1-yl]ethyl}piperidin-1-yl)propanenitrile, hydrochloride] had a melting point of 184 °C. Further, the affinity on human D3 receptor, expressed as Ki, was 15.1 nM.

On to `O=C(N[C@H]1CC[C@H](CCN2CCN(c3ccccn3)CC2)CC1)C1CC=CC1` [Example 65, Cyclopent-3-enecarboxylic acid {4-[2-(4-pyridin-2-ylpiperazin-1-yl)ethyl]cyclohexyl}amide], for which the melting point is 208 °C. Affinity on human D3 receptor was put at a Ki of 31.6 nM.

For `N#CCNC(=O)CC1CCC(CCN2CCN(c3ccccc3F)CC2)CC1` (mixture of isomers) [Example 308, N-Cyanomethyl-2-(4-{2-[4-(2-fluorophenyl)piperazin-1-yl]ethyl}cyclohexyl)acetamide trans/cis 90/10], the melting point was 164 to 167 °C. Moreover, affinity on human D3 receptor was put at a Ki of 3.5 nM.

Compound `NC(=O)CCC(=O)N[C@H]1CC[C@H](CCN2CCN(c3ccccc3)CC2)CC1` [Example 187, N-{4-[2-(4-Phenylpiperazin-1-yl)ethyl]cyclohexyl}succinamide] registered a melting point of 252 °C. The affinity at human D3 receptor, expressed as Ki, was 3.9 nM.

In turn, `O=C(C=C1CCC(CCN2CCN(c3cccc(C(F)(F)F)c3)CC2)CC1)N1CCCC1` (stereo not drawn) [Example 291, 1-Pyrrolidin-1-yl-2-(4-{2-[4-(3-trifluoromethylphenyl)piperazin-1-yl]ethyl}cyclohexylidene) ethanone] yielded a melting point of 87 °C. Further, at human D3 receptor, affinity was put at a Ki of 4.4 nM.

With `N#Cc1ccc2c(c1)CCN(CC[C@H]1CC[C@H](NC(=O)CC(F)(F)F)CC1)C2` [Example 110, N-{4-[2-(6-Cyano-3,4-dihydro-1H-isoquinolin-2-yl)ethyl]cyclohexyl}-3,3,3-trifluoropropanamide], the melting point was 215 °C. Besides, the affinity at human D3 receptor, expressed as Ki, was 10.6 nM.

Regarding `CC(=O)CN1CCC(CCN2CCN(c3cccc4ccccc34)CC2)CC1.Cl.Cl` [Example 36, 1-{4-[2-(4-Naphthalen-1-ylpiperazin-1-yl)ethyl]piperidin-1-yl}propan-2-one], the melting point turned out to be 338 °C. For the same compound, the Ki at human D3 receptor came to 1.32 nM.

In turn, `COCC(=O)NC1CCC(CCN2CCC(c3cccc(C(F)(F)F)c3)CC2)CC1` (mixture of isomers) [Example 61, 2-Methoxy-N-(4-{2-[4-(3-trifluoromethylphenyl)piperidin-1-yl]ethyl}cyclohexyl)acetamide trans/cis 95/5] returned a melting point of 82 °C. Also, the Ki on human D3 receptor was found to be 8.5 nM.

On to `CC(=O)CC1CCC(CCN2CCN(c3ccccc3F)CC2)CC1.Cl` (mixture of isomers) [Example 288, 1-(4-{2-[4-(2-Fluorophenyl)-piperazin-1-yl]ethyl}cyclohexyl)-propan-2-one, hydrochloride trans/cis 80/20], for which the melting point lay within 233 to 236 °C. Moreover, the Ki on human D3 receptor was 2.1 nM.

The compound `CC(=O)NCC(=O)N1CCC(CCN2CCN(c3cccc(C(F)(F)F)c3)CC2)CC1` [Example 14, N-[2-Oxo-2-(4-{2-[4-(3-trifluoromethylphenyl)piperazin-1-yl]ethyl}piperidin-1-yl)ethyl]acetamide] showed a melting point of 133 °C. At human D3 receptor, this compound gave an inhibition constant (Ki) of 15.1 nM.

For the compound `COc1ccccc1N1CCN(CCC2CCN(CC(C)=O)CC2)CC1.Cl.Cl` [Example 20, 1-(4-{2-[4-(2-Methoxy-phenyl)piperazin-1-yl]ethyl}piperidin-1-yl)propan-2-one, dihydrochloride], the melting point turned out to be 260 °C. For the same compound, the inhibition constant (Ki) at human D3 receptor worked out at 9.5 nM.

Take `COCC(=O)N[C@H]1CC[C@H](CCN2CC=C(c3cccc(C)c3C#N)CC2)CC1` [Example 54, N-(4-{2-[4-(2-Cyano-3-methylphenyl)-3,6-dihydro-2H-pyridin-1-yl]ethyl}cyclohexyl)-2-methoxyacetamide]: the melting point was 158 °C. In addition, the inhibitory constant (Ki) at human D3 receptor was found to be 18.3 nM.

As usually defined, the melting point is the temperature of the solid-liquid transition. By Ki is commonly meant the equilibrium dissociation constant of an inhibitor or competing ligand from its target. Read a low Ki as higher affinity.
